# Several values for one entry are separate records, joined by “and”; a condition that tells them apart may be missing. Identical values can stand only once. Like-named read-outs stand apart in the source and are kept apart here.
# Key:
# CDK2/Cyclin E1 = target: T1, CDK2/Cyclin E1 (Homo sapiens, UniProt P24941); experiment: CDK2/Cyclin E1 HTRF enzyme activity assay; format: biochemical; conditions: 1 mM ATP
# T1 construct: enzyme activity assays utilize full-length human CDK2; GST (N); purchased Carna 04-165; host or cells: baculovirus expression system
# Description: CDK2/Cyclin E1 enzyme activity assays utilize full-length human CDK2 co-expressed as N-terminal GST-tagged protein with FLAG-Cyclin E1 in a baculovirus expression system (Carna Product Number 04-165). Assays were conducted in white 384-well polystyrene plates in a final reaction volume of 8 μL. CDK2/Cyclin E1 (0.25 nM) was incubated with the compounds of the Examples (40 nL serially diluted in DMSO) in the presence of ATP (50 μM or 1 mM) and 50 nM ULight™-labeled eIF4E-binding protein 1 (THR37/46) peptide (PerkinElmer) in assay buffer (containing 50 mM HEPES pH 7.5, 1 mM EGTA, 10 mM MgCl2, 2 mM DTT, 0.05 mg/mL BSA, and 0.01% Tween 20) for 60 minutes at room temperature. The reactions were stopped by the addition of EDTA and Europium-labeled anti-phospho-4E-BP1 antibody (PerkinElmer), for a final concentration of 15 mM and 1.5 nM, respectively. HTRF signals were read after 1 hour at room temperature on a PHERAstar FS plate reader (BMG Labtech). Data was analyzed with Genedata Screener software using a three or four parameter dose response curve to determine IC50 for each compound.
# [1] = In vivo rat CNS protocol: brain, CSF and plasma concentrations after IV dosing
# Description: The brain, CSF, and plasma concentrations of the compound of Example 1 (8-isopropoxy-7-(1H-pyrazol-4-yl)-N-(tetrahydro-2H-pyran-4-yl)-[1,2,4]triazolo[1,5-c]pyrimidin-2-amine) were determined in rats after IV dosing. The compound of Example 1 was formulated in 10% dimethylacetamide in acidified saline. Male rats (n=4) were given an IV bolus of the compound of Example 1 at 2.0 mg/kg, followed by an IV infusion at 1.2 mg/kg/h for 4 hours. Blood samples were collected at 2 hours and 4 hours in tubes containing EDTA as anticoagulant and centrifuged to obtain plasma. At 4 hours, brain and CSF samples were also collected. The CSF samples were mixed with blank rat plasma (1:1 v/v) to minimize adsorption of the compound of Example 1 to the collection device. Brain, CSF, and plasma samples were frozen and concentrations of the compound of Example 1 were determined by LC-MS/MS.
# [2] = In vitro rat plasma unbound fraction; format: in vitro ADME
# [3] = In vitro permeability studies using Caco-2 cells; format: in vitro ADME; conditions: human, A-B
# Caco-2 cells = experiment: In vitro permeability studies using Caco-2 cells; format: in vitro ADME
# P-gp = target: T2, P-gp (Homo sapiens, UniProt P08183); experiment: Efflux transporter substrate assessment (Caco-2 studies), P-gp; format: in vitro ADME
# T2 construct: in vitro permeability studies using Caco-2 cells; endogenous in cells; host or cells: Caco-2 cells
# BCRP = target: T3, BCRP (Homo sapiens, UniProt Q9UNQ0); experiment: Efflux transporter substrate assessment (Caco-2 studies), BCRP; format: in vitro ADME
# T3 construct: in vitro permeability studies using Caco-2 cells; endogenous in cells; host or cells: Caco-2 cells
# T3 sequence (Q9UNQ0 1-655): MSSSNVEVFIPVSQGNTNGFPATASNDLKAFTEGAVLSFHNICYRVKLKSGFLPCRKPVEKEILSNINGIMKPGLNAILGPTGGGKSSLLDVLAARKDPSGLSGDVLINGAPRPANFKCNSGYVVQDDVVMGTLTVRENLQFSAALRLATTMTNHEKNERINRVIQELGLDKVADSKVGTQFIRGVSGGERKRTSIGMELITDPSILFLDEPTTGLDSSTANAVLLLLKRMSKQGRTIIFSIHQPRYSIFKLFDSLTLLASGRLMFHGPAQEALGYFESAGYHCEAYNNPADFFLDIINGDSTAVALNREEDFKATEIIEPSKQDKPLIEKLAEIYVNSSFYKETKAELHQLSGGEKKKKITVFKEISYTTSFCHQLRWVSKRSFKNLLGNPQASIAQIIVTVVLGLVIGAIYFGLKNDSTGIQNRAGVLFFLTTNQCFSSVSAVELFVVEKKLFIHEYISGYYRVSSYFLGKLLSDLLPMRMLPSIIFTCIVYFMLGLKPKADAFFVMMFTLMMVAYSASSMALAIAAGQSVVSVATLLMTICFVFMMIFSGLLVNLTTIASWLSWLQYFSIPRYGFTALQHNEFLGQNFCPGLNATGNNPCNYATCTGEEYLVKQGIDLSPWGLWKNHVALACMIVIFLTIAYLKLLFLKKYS
# [4] = male rats (n=4), IV infusion, 4 h, mean ± SD
# T2 sequence (P08183 whole entry): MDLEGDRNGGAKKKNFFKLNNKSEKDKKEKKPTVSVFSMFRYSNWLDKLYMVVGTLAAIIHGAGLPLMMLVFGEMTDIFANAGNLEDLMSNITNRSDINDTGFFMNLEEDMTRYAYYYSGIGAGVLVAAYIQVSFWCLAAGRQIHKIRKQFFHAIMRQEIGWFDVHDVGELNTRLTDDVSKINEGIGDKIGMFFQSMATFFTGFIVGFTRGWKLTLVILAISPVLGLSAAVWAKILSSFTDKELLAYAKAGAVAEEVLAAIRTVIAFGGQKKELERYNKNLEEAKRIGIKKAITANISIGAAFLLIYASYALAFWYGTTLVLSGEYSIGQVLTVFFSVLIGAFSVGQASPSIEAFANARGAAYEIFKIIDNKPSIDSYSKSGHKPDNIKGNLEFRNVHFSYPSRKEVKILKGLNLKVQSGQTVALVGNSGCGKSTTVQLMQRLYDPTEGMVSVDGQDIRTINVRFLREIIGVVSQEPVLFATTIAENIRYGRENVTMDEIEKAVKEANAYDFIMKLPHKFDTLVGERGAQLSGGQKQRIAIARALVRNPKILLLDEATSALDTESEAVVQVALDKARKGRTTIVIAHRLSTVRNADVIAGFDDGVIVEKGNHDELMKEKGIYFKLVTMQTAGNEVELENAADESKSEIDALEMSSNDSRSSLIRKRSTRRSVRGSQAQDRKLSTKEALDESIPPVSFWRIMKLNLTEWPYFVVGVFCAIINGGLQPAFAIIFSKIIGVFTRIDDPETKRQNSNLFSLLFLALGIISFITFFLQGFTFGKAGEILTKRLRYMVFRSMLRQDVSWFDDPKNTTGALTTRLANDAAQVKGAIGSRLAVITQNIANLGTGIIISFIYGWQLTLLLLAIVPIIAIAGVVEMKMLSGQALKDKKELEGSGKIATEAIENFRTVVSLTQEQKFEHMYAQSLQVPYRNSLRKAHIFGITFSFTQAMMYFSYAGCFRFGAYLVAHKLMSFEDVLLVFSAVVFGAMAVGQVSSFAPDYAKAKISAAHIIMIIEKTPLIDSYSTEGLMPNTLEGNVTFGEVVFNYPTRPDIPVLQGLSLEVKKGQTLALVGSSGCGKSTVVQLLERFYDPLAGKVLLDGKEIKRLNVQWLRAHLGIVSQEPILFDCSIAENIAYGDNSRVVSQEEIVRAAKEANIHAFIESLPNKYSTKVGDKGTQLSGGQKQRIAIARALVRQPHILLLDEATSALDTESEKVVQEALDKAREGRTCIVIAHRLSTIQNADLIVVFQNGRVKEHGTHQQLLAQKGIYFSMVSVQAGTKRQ
smiles,measurement,setting,value
"CC(Oc1c(-c2cn[nH]c2)ncn2nc(NC3CCOCC3)nc12)C(F)F (single isomer, unassigned) [Example 10]",IC50,CDK2/Cyclin E1,≤ 10 nM
"CC(Oc1c(-c2cn[nH]c2)ccn2nc(NC3CCOCC3)nc12)C(F)F (single isomer, unassigned) [Example 5]",IC50,CDK2/Cyclin E1,≤ 10 nM
"CC(C)Oc1c(-c2cn[nH]c2)ncn2nc(NC3CCOCC3)nc12 [Example 1, 8-Isopropoxy-7-(1H-pyrazol-4-yl)-N-(tetrahydro-2H-pyran-4-yl)-[1,2,4]triazolo[1,5-c]pyrimidin-2-amine]",IC50,CDK2/Cyclin E1,≤ 10 nM
same,Brain/Plasma (%),"[1]; 4 h, individual rats 1001-1004",60% and 89% and 73%
same,CSF/unbound plasma concentration (%),"[1]; 4 h, individual rats 1001-1004",37% and 42% and 38%
same,"Plasma free (unbound) concentration, 4 h","[1]; calculated using rat plasma in vitro unbound fraction, 4 h, individual rats 1001-1004",1.45 µM and 1.22 µM and 1.70 µM
same,"Plasma total concentration, 4 h, mean","[1]; male rats (n=4), IV bolus 2.0 mg/kg then IV infusion 1.2 mg/kg/h for 4 h, 4 h, mean ± SD",2.41 ± 0.46 µM
same,"Brain concentration, 4 h, mean",[1]; [4],1740 ± 370 nM
same,"CSF concentration, 4 h, mean",[1]; [4],0.579 ± 0.062 µM
same,"Plasma total concentration, 2 h","[1]; male rats, IV bolus 2.0 mg/kg then IV infusion 1.2 mg/kg/h for 4 h, 2 h, individual rats 1001-1004",1.44 µM and 1.41 µM and 1.71 µM
same,"Plasma total concentration, 4 h","[1]; male rats, IV bolus 2.0 mg/kg then IV infusion 1.2 mg/kg/h for 4 h, 4 h, individual rats 1001-1004",2.55 µM and 2.14 µM and 2.98 µM
same,concentration at 4 h,"[1]; male rats, IV infusion, 4 h, individual rats 1001-1004, read-out: Brain concentration, 4 h",1520 nM and 1910 nM and 2170 nM
same,concentration at 4 h,"[1]; male rats, IV infusion, 4 h, individual rats 1001-1004, read-out: CSF concentration, 4 h",541 nM and 517 nM and 653 nM
same,Kp at 4 h,"[1]; male, rat, CSF / unbound plasma, intravenous, 4 h, individual rats 1001-1004, read-out: CSF/unbound plasma concentration (%)",0.54
same,Kp at 4 h,"[1]; male, rat, CSF / unbound plasma, intravenous, 4 h, mean, read-out: CSF/unbound plasma concentration (%), mean",0.43
same,concentration at 4 h,"[1]; male, rat, CSF, iv, male rats (n=4), IV infusion, 4 h, mean ± SD, read-out: CSF concentration, 4 h, mean",579 ± 62 nM
same,concentration at 4 h,"[1]; male, rat, CSF, iv, male rats, IV infusion, 4 h, individual rats 1001-1004, read-out: CSF concentration, 4 h",604 nM
same,Kp at 4 h,"[1]; male, rat, brain / plasma, intravenous, 4 h, individual rats 1001-1004, read-out: Brain/Plasma (%)",0.7
same,Kp at 4 h,"[1]; male, rat, brain / plasma, intravenous, 4 h, mean, read-out: Brain/Plasma (%), mean",0.73
same,concentration at 4 h,"[1]; male, rat, brain, iv, male rats (n=4), IV infusion, 4 h, mean ± SD, read-out: Brain concentration, 4 h, mean",1740 ± 370 nM
same,concentration at 4 h,"[1]; male, rat, brain, iv, male rats, IV infusion, 4 h, individual rats 1001-1004, read-out: Brain concentration, 4 h",1360 nM
same,concentration at 4 h,"[1]; male, rat, plasma (unbound), intravenous, calculated using rat plasma in vitro unbound fraction, 4 h, individual rats 1001-1004, read-out: Plasma free (unbound) concentration, 4 h",1110 nM
same,concentration at 4 h,"[1]; male, rat, plasma (unbound), intravenous, calculated using rat plasma in vitro unbound fraction, 4 h, mean ± SD, read-out: Plasma free (unbound) concentration, 4 h, mean",1370 ± 260 nM
same,concentration at 2 h,"[1]; male, rat, plasma, intravenous, male rats (n=4), IV bolus 2.0 mg/kg then IV infusion 1.2 mg/kg/h for 4 h, 2 h, mean ± SD, read-out: Plasma total concentration, 2 h, mean",1460 ± 180 nM
same,concentration at 4 h,"[1]; male, rat, plasma, intravenous, male rats (n=4), IV bolus 2.0 mg/kg then IV infusion 1.2 mg/kg/h for 4 h, 4 h, mean ± SD, read-out: Plasma total concentration, 4 h, mean",2410 ± 460 nM
same,concentration at 2 h,"[1]; male, rat, plasma, intravenous, male rats, IV bolus 2.0 mg/kg then IV infusion 1.2 mg/kg/h for 4 h, 2 h, individual rats 1001-1004, read-out: Plasma total concentration, 2 h",1270 nM
same,concentration at 4 h,"[1]; male, rat, plasma, intravenous, male rats, IV bolus 2.0 mg/kg then IV infusion 1.2 mg/kg/h for 4 h, 4 h, individual rats 1001-1004, read-out: Plasma total concentration, 4 h",1950 nM
same,penetration across the rat blood-brain barrier (in words),"[1]; rat, IV infusion",readily penetrates across the rat blood-brain barrier
same,fraction unbound,[2],0.57
same,Papp A→B,[3],16 ×10⁻⁶ cm/s
same,Caco-2 permeability (in words),Caco-2 cells,highly permeable
same,substrate of P-gp efflux transporter,P-gp,not a substrate
same,substrate of BCRP efflux transporter,BCRP,not a substrate
"CC(Oc1c(-c2cn[nH]c2)ccn2nc(NC3CCOCC3)nc12)C(F)(F)F (single isomer, unassigned) [Example 4]",IC50,CDK2/Cyclin E1,≤ 10 nM
"CC(Oc1c(-c2cn[nH]c2)ccn2nc(NC3CCOCC3)nc12)C(F)F (single isomer, unassigned) [Example 6]",IC50,CDK2/Cyclin E1,≤ 10 nM
"CC(Oc1c(-c2cn[nH]c2)ncn2nc(NC3CCOCC3)nc12)C(F)F (single isomer, unassigned) [Example 9]",IC50,CDK2/Cyclin E1,≤ 10 nM
"CC(Oc1c(-c2cn[nH]c2)ccn2nc(NC3CCOCC3)nc12)C(F)(F)F (single isomer, unassigned) [Example 3]",IC50,CDK2/Cyclin E1,≤ 10 nM
"CC(Oc1c(-c2cn[nH]c2)ncn2nc(NC3CCOCC3)nc12)C(F)(F)F (single isomer, unassigned) [Example 8]",IC50,CDK2/Cyclin E1,≤ 10 nM
"CC(C)Oc1c(-c2cn[nH]c2)ccn2nc(NC3CCOCC3)nc12 [Example 2, 8-Isopropoxy-7-(1H-pyrazol-4-yl)-N-(tetrahydro-2H-pyran-4-yl)-[1,2,4]triazolo[1,5-a]pyridin-2-amine]",IC50,CDK2/Cyclin E1,≤ 10 nM
"CC(Oc1c(-c2cn[nH]c2)ncn2nc(NC3CCOCC3)nc12)C(F)(F)F (single isomer, unassigned) [Example 7]",IC50,CDK2/Cyclin E1,≤ 10 nM
